Source: patent EP0573253B1, “Topical anti-bacterial composition” (UNILEVER PLC, priority 1992, dated 1993)

Assays:
[1] = test system: Candida albicans; test: Agar dilution test, minimum inhibitory concentration; format: cell-based; settings: for MINIMUM INHIBITORY CONCENTRATION: Trypticase Soy Agar II plates
Method: (§1) Standard agar dilution tests in order to establish the minimum inhibitory concentration (% v/v) for C6 acyl lactylate, C8 acyl lactylate and C12 acyl lactylate were performed both in the presence and the absence of a lipid on the following micro-organisms: • 1. Propionibacterium acnes • 2. Staphylococcus aureus • 3. Escherichia coli • 4. Candida albicans
(§2) Control experiments were performed employing benzoyl peroxide and erthyromycin.
(§3) The present tests were performed using Trypticase Soy Agar II incorporation plates with and without 10% intralipid, supplied by Kabi Pharmacia Inc. In each case the lactylate being tested was used at a starting concentration of 10,000 ug/ml.

[2] = test system: Escherichia coli; test: as above; format: cell-based; settings: for MINIMUM INHIBITORY CONCENTRATION: Trypticase Soy Agar II plates; for inhibitory against gram-negative bacteria: text summary of Table II, lipid condition not stated
Method: as §1, §2, §3

[3] = test system: Propionibacterium acnes; test: as above; format: cell-based; settings: Trypticase Soy Agar II plates
Method: as §1, §2, §3

[4] = test system: Staphylococcus aureus; test: as above; format: cell-based; settings: for MINIMUM INHIBITORY CONCENTRATION: Trypticase Soy Agar II plates
Method: as §1, §2, §3

[5] = test system: rate of hair loss; test: Reduction of the rate of hair loss, panel of human volunteers (brushing and hair count); format: in vivo; settings: human panellists, about 3 ml applied to the scalp daily at night, compared with placebo composition B; Student t-test
Method: The effect of selected acyl lactylates, as herein defined, on reducing the rate of hair loss was assessed using a panel of human volunteers.
Each panellist was requested to brush his or her hair immediately on getting out of bed in the morning before other grooming took place. The hair brushing consisted of ten vigorous strokes over the entire head from front to back, ten strokes from back to front and then ten strokes from each side to the opposite side. Brushing was carried out over a towel or other light cloth to collect any hairs that fell. In addition, all the hairs on the brush were removed with forceps. The total number of hair collected each day was counted. Panellists were requested to continue with their routine hair shampooing and grooming techniques as usual, the only change to this routine being the application of products in accordance with the invention or corresponding control or placebo products.
During the first month, each panellist carried out only the standard brushing, collecting and counting of hairs lost to provide a basis for comparison later. For the second and third months, the scalp was treated by adding the test or placebo compositions in addition to the standard brushing technique as previously described. […]
The results were analysed by the standard Student t-test.

[6] = text summary of Table II, lipid condition not stated

Molecule	MINIMUM INHIBITORY CONCENTRATION ([1]; Lipid (10% intralipid))	MINIMUM INHIBITORY CONCENTRATION ([1]; No Lipid)	inhibitory effect against yeast [1, 6] [% v/v]	MINIMUM INHIBITORY CONCENTRATION ([2]; Lipid (10% intralipid))	MINIMUM INHIBITORY CONCENTRATION ([2]; No Lipid)	inhibitory against gram-negative bacteria [2] [% v/v]	MINIMUM INHIBITORY CONCENTRATION ([3]; Lipid (10% intralipid))	MINIMUM INHIBITORY CONCENTRATION ([3]; No Lipid)	MINIMUM INHIBITORY CONCENTRATION ([4]; Lipid (10% intralipid))	MINIMUM INHIBITORY CONCENTRATION ([4]; No Lipid)	inhibitory to gram-positive bacteria [4, 6] [% v/v]	reduction in the rate of loss of hair [5]
C12 acyl lactylate [C12 Lactylate]	>1.0 % V/V	>1.0 % V/V	> 1	>1.0 % V/V	>1.0 % V/V	> 1	0.25 % V/V	0.00039 % V/V	0.5 % V/V	0.06 % V/V	0.0625	significantly reduced
C8 acyl lactylate [C8 Lactylate]	1.0 % V/V	1.0 % V/V	–	1.0 % V/V	1.0 % V/V	1	0.5 % V/V	0.25 % V/V	0.5 % V/V	0.5 % V/V	–	–
C6 acyl lactylate [C6 Lactylate]	" "	" "	–	" "	" "	–	0.5 % V/V	pH Effect	pH Effect	" "	–	–
CC[C@H]1OC(=O)[C@H](C)[C@@H](O[C@H]2C[C@@](C)(OC)[C@@H](O)[C@H](C)O2)[C@H](C)[C@@H](O[C@@H]2O[C@H](C)C[C@H](N(C)C)[C@H]2O)[C@](C)(O)C[C@@H](C)C(=O)[C@H](C)[C@@H](O)[C@]1(C)O [Erthyromycin, erthyromycin, reference compound]	0.01 % V/V	0.01 % V/V	–	0.01 % V/V	0.01 % V/V	–	<1.9 x 10^-5 % V/V	<1.9 x 10^-5 % V/V	3.1 x 10^-4 % V/V	3.1 x 10^-4 % V/V	–	–
O=C(OOC(=O)c1ccccc1)c1ccccc1 [Benzoyl Peroxide, benzoyl peroxide, reference compound]	0.12 % V/V	0.25 % V/V	–	0.12 % V/V	0.25 % V/V	–	0.06 % V/V	0.25 % V/V	0.12 % V/V	0.25 % V/V	–	–
